Data published in patent US10829520B2, “Beta-hairpin peptidomimetics” (POLYPHOR AG, priority 2015, dated 2020).
Where a SMILES comes first, the peptide text is derived from it. Bridges are numbered along the chain shown (N, C = ends). [ ]: non-standard residue; d: D form. Tle = CC(C)(C)[C@H](N)C(=O)O; dDab = NCC[C@@H](N)C(=O)O; Nle = CCCC[C@H](N)C(=O)O; Orn = NCCC[C@H](N)C(=O)O; Dab = NCC[C@H](N)C(=O)O; Dap = NC[C@H](N)C(=O)O; Sar = CNCC(=O)O

Legend:
Assay type in all cases: cell-based
[1] = system: Acinetobacter baumannii 872842; conditions: 872842
[2] = system: Acinetobacter baumannii DSM 30008; conditions: DSM 30008
Method in brief: (§1)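 Minimal inhibitory concentrations were recorded in μg/mL after the strains grew 18-20 hours at 35° C with two-fold serial peptide dilutions. The medium was Mueller-Hinton II (cation-adjusted) with 0.002% Polysorbate 80, and the inoculum was about 10^6 CFU/mL.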

Escherichia coli 926415 = conditions: 926415
[3] = system: Escherichia coli ATCC 25922; conditions: ATCC 25922
Method in brief: as §1

[4] = system: Klebsiella pneumoniae 968733; conditions: 968733
[5] = system: Klebsiella pneumoniae SSI #3010; conditions: SSI #3010
Method in brief: as §1

[6] = system: Pseudomonas aeruginosa ATCC 27853; conditions: ATCC 27853
Method in brief: as §1

[7] = system: human red blood cells (hRBC); assay: Hemolysis of human red blood cells; conditions: red cells of human, 1 h, 100 μg/mL
Method in brief: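 Each peptide was tested at a single concentration, 100 μg/mL. Erythrocytes (20% v/v) were incubated 1 h at 37° C. under shaking at 300 rpm, centrifuged, and released hemoglobin measured at OD540. Controls were PBS containing 0.001% acetic acid (0%) and Triton X-100 (100%).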

Compound	Acinetobacter baumannii 872842 MIC [1] [µg/mL]	Acinetobacter baumannii DSM 30008 MIC [2] [µg/mL]	Escherichia coli 926415 MIC (Escherichia coli 926415) [µg/mL]	Escherichia coli ATCC 25922 MIC [3] [µg/mL]	Klebsiella pneumoniae 968733 MIC [4] [µg/mL]	Klebsiella pneumoniae SSI #3010 MIC [5] [µg/mL]	Pseudomonas aeruginosa ATCC 27853 MIC [6] [µg/mL]	Hemolysis at 100 μg/mL [7] [%]
CC(=O)N[C@@H](Cc1c[nH]c2ccccc12)C(=O)N[C@H]1CSSC[C@@H](C(=O)N[C@@H](CCCN)C(=O)N[C@H](C(=O)N[C@@H](CCN)C(=O)N[C@@H](CCN)C(=O)N[C@H]2CCNC(=O)[C@H]([C@@H](C)O)NC(=O)[C@H](CCN)NC(=O)[C@H](CCN)NC(=O)[C@H](CC(C)C)NC(=O)[C@@H](Cc3ccccc3)NC(=O)[C@H](CCN)NC2=O)[C@@H](C)O)NC(=O)[C@H](Cc2ccc(O)cc2)NC(=O)[C@H](CC(=O)O)NC(=O)[C@H](CC(C)C)NC(=O)[C@@H]2CCCN2C(=O)[C@H]2CCCN2C(=O)[C@H](CO)NC(=O)[C@H](Cc2ccc(O)cc2)NC(=O)[C@H](C(C)(C)C)NC1=O [Ex. 146] (Ac-WC[Tle]YS[dP]PLDYC[Orn]T[Dab][Dab][Dab][Dab][dF]L[Dab][Dab]T; disulfide 2-11; lactam 16-C)	1	0.125	4	0.25	4	0.25	0.5	3
CCCC[C@@H]1NC(=O)[C@@H]2CCCN2C(=O)[C@H]2CCCN2C(=O)[C@H](CO)NC(=O)[C@H](CO)NC(=O)[C@H](C(C)(C)C)NC(=O)[C@@H](NC(=O)[C@@H](N)Cc2c[nH]c3ccccc23)CSSC[C@@H](C(=O)N(C)CC(=O)N[C@@H](CCN)C(=O)N[C@H](C(=O)N[C@@H](CCN)C(=O)N[C@H]2CCNC(=O)[C@H]([C@@H](C)O)NC(=O)[C@H](CCN)NC(=O)[C@H](CCN)NC(=O)[C@H](CC(C)C)NC(=O)[C@@H](CC(C)C)NC(=O)[C@H](CCN)NC2=O)[C@@H](C)O)NC(=O)[C@H](Cc2ccc(O)cc2)NC(=O)[C@H](CN)NC1=O [Ex. 147] (H-WC[Tle]SS[dP]P[Nle][Dap]YC[Sar][Dab]T[Dab][Dab][Dab][dL]L[Dab][Dab]T; disulfide 2-11; lactam 16-C)	0.0625	0.03125	0.0625	0.0625	0.5	0.0625	1	<1
CC(C)C[C@@H]1NC(=O)[C@@H](CC(C)C)NC(=O)[C@H](CCN)NC(=O)[C@@H](NC(=O)[C@H](CCN)NC(=O)[C@H](CCN)NC(=O)[C@@H](CCN)NC(=O)[C@H](CCCN)NC(=O)[C@@H]2CSSC[C@H](NC(=O)[C@@H](N)Cc3c[nH]c4ccccc34)C(=O)N[C@@H](C(C)C)C(=O)N[C@@H](CO)C(=O)N[C@@H](CO)C(=O)N3CCC[C@@H]3C(=O)N3CCC[C@H]3C(=O)N[C@@H](C(C)C)C(=O)N[C@@H](CN)C(=O)N[C@@H](Cc3ccc(O)cc3)C(=O)N2)CCNC(=O)[C@H]([C@@H](C)O)NC(=O)[C@H](CCN)NC(=O)[C@H](CCN)NC1=O [Ex. 148] (H-WCVSS[dP]PV[Dap]YC[Orn][dDab][Dab][Dab][Dab][Dab][dL]L[Dab][Dab]T; disulfide 2-11; lactam 16-C)	0.25	0.5	0.5	0.25	4	1	0.125	<1
CC(C)C[C@@H]1NC(=O)[C@@H](CC(C)C)NC(=O)[C@H](CCN)NC(=O)[C@@H](NC(=O)[C@H](CCN)NC(=O)[C@@H](CCN)NC(=O)[C@@H](NC(=O)[C@H](CCCN)NC(=O)[C@@H]2CSSC[C@H](NC(=O)[C@@H](N)Cc3c[nH]c4ccccc34)C(=O)N[C@@H](C(C)C)C(=O)N[C@@H](CO)C(=O)N[C@@H](CO)C(=O)N3CCC[C@@H]3C(=O)N[C@@H](Cc3ccc(O)cc3)C(=O)N[C@@H](C(C)C)C(=O)N[C@@H](CN)C(=O)N[C@@H](Cc3ccc(O)cc3)C(=O)N2)[C@@H](C)O)CCNC(=O)[C@H]([C@@H](C)O)NC(=O)[C@H](CCN)NC(=O)[C@H](CCN)NC1=O [Ex. 149] (H-WCVSS[dP]YV[Dap]YC[Orn]T[dDab][Dab][Dab][Dab][dL]L[Dab][Dab]T; disulfide 2-11; lactam 16-C)	0.0625	0.5	0.125	0.5	0.5	0.25	0.5	<1
CCCC[C@@H]1NC(=O)[C@@H]2CCCN2C(=O)[C@H]2CCCN2C(=O)[C@H](CO)NC(=O)[C@H](CO)NC(=O)[C@H](C(C)C)NC(=O)[C@@H](NC(=O)[C@@H](N)Cc2c[nH]c3ccccc23)CSSC[C@@H](C(=O)N(C)CC(=O)N[C@@H](CCN)C(=O)N[C@H](C(=O)N[C@@H](CCN)C(=O)N[C@H]2CCNC(=O)[C@H]([C@@H](C)O)NC(=O)[C@H](CCN)NC(=O)[C@H](CCN)NC(=O)[C@H](CC(C)C)NC(=O)[C@@H](CC(C)C)NC(=O)[C@H](CCN)NC2=O)[C@@H](C)O)NC(=O)[C@H](C)NC(=O)[C@H](CN)NC1=O [Ex. 150] (H-WCVSS[dP]P[Nle][Dap]AC[Sar][Dab]T[Dab][Dab][Dab][dL]L[Dab][Dab]T; disulfide 2-11; lactam 16-C)	0.25	0.25	0.5	0.125	8	0.25	1	<1
CC(C)C[C@@H]1NC(=O)[C@@H](CC(C)C)NC(=O)[C@H](CCN)NC(=O)[C@@H](NC(=O)[C@H](CCN)NC(=O)[C@H](CCN)NC(=O)[C@@H](NC(=O)[C@H](CCCN)NC(=O)[C@@H]2CSSC[C@H](NC(=O)[C@@H](N)Cc3c[nH]c4ccccc34)C(=O)N[C@@H](C(C)C)C(=O)N[C@@H](Cc3ccc(O)cc3)C(=O)N[C@@H](CO)C(=O)N3CCC[C@@H]3C(=O)N3CCC[C@H]3C(=O)N[C@@H](CC(C)C)C(=O)N[C@@H](CC(=O)O)C(=O)N[C@@H](Cc3ccc(O)cc3)C(=O)N2)[C@@H](C)O)CCNC(=O)[C@H]([C@@H](C)O)NC(=O)[C@H](CCN)NC(=O)[C@H](CCN)NC1=O [Ex. 151] (H-WCVYS[dP]PLDYC[Orn]T[Dab][Dab][Dab][Dab][dL]L[Dab][Dab]T; disulfide 2-11; lactam 16-C)	0.5	1	2	0.25	8	1	0.5	<1
CC(C)C[C@@H]1NC(=O)[C@@H](CC(C)C)NC(=O)[C@H](CCN)NC(=O)[C@@H](NC(=O)[C@H](CCN)NC(=O)[C@@H](NC(=O)[C@H](CCN)NC(=O)CN(C)C(=O)[C@@H]2CSSC[C@H](NC(=O)[C@@H](N)Cc3c[nH]c4ccccc34)C(=O)N[C@@H](C(C)C)C(=O)N[C@@H](CCCNC(=N)N)C(=O)N[C@@H](CCCNC(=N)N)C(=O)N3CCC[C@@H]3C(=O)N3CCC[C@H]3C(=O)N[C@@H](CC(C)C)C(=O)N[C@@H](CO)C(=O)N[C@@H](Cc3ccc(O)cc3)C(=O)N2)[C@@H](C)O)CCNC(=O)[C@H]([C@@H](C)O)NC(=O)[C@H](CCN)NC(=O)[C@H](CCN)NC1=O [Ex. 152] (H-WCVRR[dP]PLSYC[Sar][Dab]T[Dab][Dab][Dab][dL]L[Dab][Dab]T; disulfide 2-11; lactam 16-C)	0.125	0.25	2	0.25	8	0.25	2	1
